This note sets out measurements from patent US11179348B2, “Combination comprising pterostilbene for the treatment of cancer” (FUNDACIÓN UNIVERSIDAD CATÓLICA DE VALENCIA SAN VICENTE …, priority 2015, dated 2021).

Marks after values point to notes of the source that are not given here.

Test [1] deals with MCF-7 breast adenocarcinoma. Briefly: In vivo growth of MCF-7 breast cancer xenografts. The note with it: MCF-7, day 28. Details: species or system human.
A further test concerns A2058 melanoma cells. Briefly: NO production (NOx) in cultured A2058 cells isolated from treated mice. Type of test: cell-based, human. The note with it: 24-h cultured A2058 cells isolated from Pter-treated mice.
In test [2] the test system is LNCaP prostate adenocarcinoma. Nature of the test: In vivo growth of LNCaP prostate cancer xenografts. Also noted: species or system human. Particulars: day 49.
A further test concerns HepG2 cells. Briefly: GSH levels and glutathione- and oxidative stress-related enzyme activities in HepG2 cells growing in vivo. Details: species or system human. Particulars: HepG2, in vivo Pter, day 35. The procedure:
To measure enzyme activity, isolated tumor cells were homogenized in 0.1 M phosphate buffer (pH 7.2) at 4° C. GCL and GSS activities were measured as described previously (Obrador, E. et al. Hepatology 35, 74-81 (2002)). GPX (selenium dependent) activity was measured as described by Flohé and Gunzler (Flohe, L. & Gunzler, W. A. Methods Enzymol 105, 114-121 (1984)) using H2O2 as a substrate. GSR activity was determined as described by Akerboom and Sies (Akerboom, T. P. et al, Bull Eur Physiopathol Respir 17 Suppl, 221-227 (1981)). GGT activity was measured as described previously (Obrador, E. et al. Hepatology 35, 74-81 (2002)). GST activity was measured using an assay kit from Sigma. TXNRD activity, defined by the concentration of sodium-lipoate (disulfide) reduced to dehydrolipoate (dithiol) per milligram protein, was measured as previously described (Javvadi, P. et al. Cancer Res 70, 1941-1950 (2010)). SOD activity was measured as described by Flohé and Otting (Flohe, L. & Otting, F. Methods Enzymol 105, 93-104 (1984).) using 2 mM cyanide in the assay medium to distinguish mangano-type enzyme (SOD2) from the cuprozinc type (SOD1). CAT activity was analyzed as described by Aebi (Aebi, H. Methods Enzymol 105, 121-126 (1984)). NOX activity was measured by chemiluminescence following the methodology of Wind et al. (Wind, S. et al. Comparative pharmacology of chemically distinct NADPH oxidase inhibitors. Br J Pharmacol 161, 885-898 (2010)). Protein concentration was determined with the Pierce BCA protein assay (Fisher Scientific, Waltham, Mass.).
GSH, GSSG, NADP^+ and NADPH Determination.
GSH and GSSG were determined, following procedures previously described (Obrador, E. et al. PLoS One 9, e96466 (2014)), by LC/MS using the same equipment described above for pterostilbene determination. Cell processing was performed according to published methodology, where rapid N-ethylmaleimide derivatization was used to prevent GSH auto-oxidation (Asensi, M. et al. Anal Biochem 217, 323-328 (1994)). NADP^+ and NADPH were quantitated using an assay kit from Sigma (St. Louis, Mo.).
Isolation of Tumor Cells from Mouse Xenografts Using Enzymatic Digestion and a double Ficoll gradient.
To maximize the amount of isolated cells, avoiding the use of RFP-transfected cells and subsequent laser microdissection, an alternative methodology was set up. To maximize cell yield and viability the following combination of enzymes was used: collagenase III (200 U/ml; Sigma-Aldrich), DNase I (200 U/ml; Sigma-Aldrich) and trypsin (5 mg/ml; Invitrogen), and a non-enzymatic dissociation buffer (NEDB, Invitrogen). Briefly, mice were killed, and tumors were removed (avoiding skin, muscle and fat) into cold culture media and processed immediately. The tumors were minced into 1-3 mm fragments, which were then incubated with the dissociation solution (see above) for 30 min at 37° C. The tumor fragments were mixed up and down every 10 min using a […] micropipette with a tip cut to a diameter adapted to tissue fragment size. After each incubation period, the fragments were filtered through a […] nylon mesh cell strainer (BD Biosciences, San Diego, Calif., USA). The released cells were centrifuged at 1200 r.p.m. for 2 min and stored in cold CO2-independent medium with 30% FCS at […]. Fresh dissociation solution was added to the remaining tissue fragments for 30 min. Dissociation was stopped when no additional cells were released. The fragments were pushed through a sieve and all cells from all incubation periods were pooled and counted.
The dissociated cells were layered onto a double Ficoll gradient (Histopaque; Sigma-Aldrich; densities 1.077 and 1.119) and spun at 700 g for 30 min at room temperature. Cells removed from both interfaces were pooled and washed two times in CO2-independent medium and stored at 4° C. Debris and red blood cell elimination was improved with the dual-density gradient. […]

For a further test, the system named is ACTH. Nature of the test: Plasma ACTH levels (ELISA) in tumor-bearing mice. The class given is in vivo. The source says: Measurement of ACTH, Corticosterone, and NORA Levels.
Plasma levels of ACTH (Calbiotech, Inc., Spring Valley, Calif.), corticosterone (Kamiyama Biomedical Co., Seattle, Wash.), and NORA (IBL, Hamburg, Germany) were quantified by ELISA according to the instructions of the suppliers.
For orientation: In an ELISA, binding on a coated surface is turned into a signal by an enzyme label.

Another test relates to BxPC-3 pancreatic cancer. Briefly: In vivo growth of BxPC-3 pancreatic cancer xenografts. Also noted: species or system human. The note with it: BxPC-3-RFP; 35 days after inoculation; Pter and/or CRC.

As to `COc1cc(/C=C/c2ccc(O)cc2)cc(OC)c1` [Pter, trans-3,5-dimethoxy-4′-hydroxystilbene], the Tumor vol. in test [1] is 689 ± 153 mm^3; in test [2] it was 757 ± 194 mm^3; with BxPC-3 pancreatic cancer, 226 ± 63* mm^3. Besides, the “NO production (NOx=NO2^− plus NO3^−)” value in the test with A2058 melanoma cells was determined as 0.15±0.04 nmol/10^6 cells. The CAT in the test with HepG2 cells is recorded as 1.1 ± 0.3 mU/10^6 cells. Further, the GCL in the test on HepG2 cells came to 50 ± 15 mU/10^6 cells. In the test with HepG2 cells, the GSH is 8.5 ± 2.6 nmol/10^6 cells. Also, the GSS with HepG2 cells is listed as 4.8 ± 0.9 mU/10^6 cells. Moreover, the GSSG with HepG2 cells turned out to be 0.3 ± 0.1 nmol/10^6 cells. The SOD1 in the test on HepG2 cells came to 0.1 ± 0.02 U/10^6 cells. The SOD2 in the test on HepG2 cells came to 0.02 ± 0.01 U/10^6 cells. The ACTH in the test with ACTH (A549-bearing mice, day 35, 6 h circadian time) is 79 ± 19 pg/mL plasma; with ACTH (AsPC-1-bearing mice, day 28, 6 h circadian time), 112 ± 31 pg/mL plasma; with ACTH (BxPC-3-bearing mice, day 35, 6 h circadian time) it was 68 ± 11 pg/mL plasma; with ACTH (Caco-2-bearing mice, day 28, 6 h circadian time), 35 ± 15 pg/mL plasma; in the test with ACTH (HT-29-bearing mice, day 21, 6 h circadian time), 44 ± 16 pg/mL plasma; with ACTH (HepG2-bearing mice, day 35, 6 h circadian time), 116 ± 25 pg/mL plasma. Further, the ACTH amounted to 49 ± 15 pg/mL plasma in the test on ACTH (LNCaP-bearing mice, day 49, 6 h circadian time); 44 ± 9 pg/mL plasma with ACTH (MCF-7-bearing mice, day 28, 6 h circadian time); 65 ± 17 pg/mL plasma in the test with ACTH (MDA-MB-231-bearing mice, day 35, 6 h circadian time); 102 ± 30 pg/mL plasma with ACTH (PC-3-bearing mice, day 21, 6 h circadian time); 63 ± 19 pg/mL plasma with ACTH (SK-OV-3-bearing mice, day 49, 6 h circadian time). In addition, the “ACTH levels in plasma” value with ACTH (melanoma-bearing mice, pterostilbene treatment (FIG. 2B)) is “decreased”.
